Data taken from ChEMBL document CHEMBL4311999, “3-Hydrazinoisatin-based benzenesulfonamides as novel carbonic anhydrase inhibitors endowed with anticancer activity: Synthesis, in vitro biological evaluation and in silico insights” (Eur J Med Chem, 2019).
pKi: −log10 of the molar value.

Key:
[1] = target: T1, Carbonic anhydrase 9 (Homo sapiens, UniProt Q16790); assay: Inhibition of recombinant human carbonic anhydrase 9 preincubated for 15 mins by phenol red dye based stopped flow CO2 hydration assay
[2] = target: T1, Carbonic anhydrase 9; settings: at 1 nM
[3] = target: T1, Carbonic anhydrase 9; settings: at 0.01 µM
Description: Inhibition of recombinant human carbonic anhydrase 9 at 0.01 uM preincubated for 15 mins by phenol red dye based stopped flow CO2 hydration assay (Rvb = 0%)

[4] = target: T1, Carbonic anhydrase 9; settings: at 0.1 µM
Description: Inhibition of recombinant human carbonic anhydrase 9 at 0.1 uM preincubated for 15 mins by phenol red dye based stopped flow CO2 hydration assay (Rvb = 0%)

[5] = target: T1, Carbonic anhydrase 9; settings: at 1 µM
Description: Inhibition of recombinant human carbonic anhydrase 9 at 1 uM preincubated for 15 mins by phenol red dye based stopped flow CO2 hydration assay (Rvb = 0%)

[6] = test system: K562; assay: Growth inhibition of human K562 cells at 10 uM incubated for 48 hrs by sulforhodamine B assay relative to control; type: functional; settings: K562, 48 h, read-out: GI
[7] = test system: MOLT-4; assay: Growth inhibition of human MOLT4 cells at 10 uM incubated for 48 hrs by sulforhodamine B assay relative to control; type: functional; settings: MOLT-4, 48 h, read-out: GI
[8] = test system: RPMI-8226; assay: Growth inhibition of human RPMI8226 cells at 10 uM incubated for 48 hrs by sulforhodamine B assay relative to control; type: functional; settings: RPMI-8226, 48 h, read-out: GI
[9] = test system: EKVX; assay: Growth inhibition of human EKVX cells at 10 uM incubated for 48 hrs by sulforhodamine B assay relative to control; type: functional; settings: read-out: GI
[10] = test system: A549; assay: Growth inhibition of human A549/ATCC cells at 10 uM incubated for 48 hrs by sulforhodamine B assay relative to control; type: functional; settings: A549, 48 h, read-out: GI
[11] = test system: NCI-H226; assay: Growth inhibition of human NCI-H226 cells at 10 uM incubated for 48 hrs by sulforhodamine B assay relative to control; type: functional; settings: NCI-H226, 48 h, read-out: GI
[12] = test system: NCI-H522; assay: Growth inhibition of human NCI-H522 cells at 10 uM incubated for 48 hrs by sulforhodamine B assay relative to control; type: functional; settings: NCI-H522, 48 h, read-out: GI
[13] = test system: HCT-116; assay: Growth inhibition of human HCT116 cells at 10 uM incubated for 48 hrs by sulforhodamine B assay relative to control; type: functional; settings: HCT-116, 48 h, read-out: GI
[14] = test system: KM12; assay: Growth inhibition of human KM12 cells at 10 uM incubated for 48 hrs by sulforhodamine B assay relative to control; type: functional; settings: KM12, 48 h, read-out: GI
[15] = test system: SW-620; assay: Growth inhibition of human SW620 cells at 10 uM incubated for 48 hrs by sulforhodamine B assay relative to control; type: functional; settings: SW-620, 48 h, read-out: GI
[16] = test system: MCF7; assay: Growth inhibition of human MCF7 cells at 10 uM incubated for 48 hrs by sulforhodamine B assay relative to control; type: functional; settings: MCF7, 48 h, read-out: GI
[17] = test system: DU-145; assay: Growth inhibition of human DU145 cells at 10 uM incubated for 48 hrs by sulforhodamine B assay relative to control; type: functional; settings: DU-145, 48 h, read-out: GI
[18] = test system: UO-31; assay: Growth inhibition of human UO31 cells at 10 uM incubated for 48 hrs by sulforhodamine B assay relative to control; type: functional; settings: UO-31, 48 h, read-out: GI
[19] = test system: TK-10; assay: Growth inhibition of human TK10 cells at 10 uM incubated for 48 hrs by sulforhodamine B assay relative to control; type: functional; settings: TK-10, 48 h, read-out: GI
[20] = test system: CAKI-1; assay: Growth inhibition of human Caki1 cells at 10 uM incubated for 48 hrs by sulforhodamine B assay relative to control; type: functional; settings: CAKI-1, 48 h, read-out: GI
[21] = test system: ACHN; assay: Growth inhibition of human ACHN cells at 10 uM incubated for 48 hrs by sulforhodamine B assay relative to control; type: functional; settings: read-out: GI
[22] = test system: 786-0; assay: Growth inhibition of human 786-0 cells at 10 uM incubated for 48 hrs by sulforhodamine B assay relative to control; type: functional; settings: 786-0, 48 h, read-out: GI
[23] = test system: A498; assay: Growth inhibition of human A498 cells at 10 uM incubated for 48 hrs by sulforhodamine B assay relative to control; type: functional; settings: A498, 48 h, read-out: GI
[24] = test system: SK-OV-3; assay: Growth inhibition of human SKOV3 cells at 10 uM incubated for 48 hrs by sulforhodamine B assay relative to control; type: functional; settings: SK-OV-3, 48 h, read-out: GI
[25] = test system: OVCAR-4; assay: Growth inhibition of human OVCAR4 cells at 10 uM incubated for 48 hrs by sulforhodamine B assay relative to control; type: functional; settings: OVCAR-4, 48 h, read-out: GI
[26] = test system: IGROV-1; assay: Growth inhibition of human IGROV1 cells at 10 uM incubated for 48 hrs by sulforhodamine B assay relative to control; type: functional; settings: IGROV-1, 48 h, read-out: GI
[27] = test system: UACC-62; assay: Growth inhibition of human UACC62 cells at 10 uM incubated for 48 hrs by sulforhodamine B assay relative to control; type: functional; settings: UACC-62, 48 h, read-out: GI
[28] = target: Carbonic anhydrase 1 (Homo sapiens, UniProt P00915); assay: Inhibition of recombinant human carbonic anhydrase 1 preincubated for 15 mins by phenol red dye based stopped flow CO2 hydration assay
[29] = test system: CCRF-CEM; assay: Growth inhibition of human CCRF-CEM cells at 10 uM incubated for 48 hrs by sulforhodamine B assay relative to control; type: functional; settings: read-out: GI
[30] = test system: SR; assay: Growth inhibition of human SR cells at 10 uM incubated for 48 hrs by sulforhodamine B assay relative to control; type: functional; settings: read-out: GI
[31] = test system: NCI-H460; assay: Growth inhibition of human NCI-H460 cells at 10 uM incubated for 48 hrs by sulforhodamine B assay relative to control; type: functional; settings: NCI-H460, 48 h, read-out: GI
[32] = test system: SNB-75; assay: Growth inhibition of human SNB75 cells at 10 uM incubated for 48 hrs by sulforhodamine B assay relative to control; type: functional; settings: SNB-75, 48 h, read-out: GI
[33] = test system: SF-268; assay: Growth inhibition of human SF268 cells at 10 uM incubated for 48 hrs by sulforhodamine B assay relative to control; type: functional; settings: SF-268, 48 h, read-out: GI
[34] = test system: SF-539; assay: Growth inhibition of human SF539 cells at 10 uM incubated for 48 hrs by sulforhodamine B assay relative to control; type: functional; settings: SF-539, 48 h, read-out: GI
[35] = test system: SNB-19; assay: Growth inhibition of human SNB19 cells at 10 uM incubated for 48 hrs by sulforhodamine B assay relative to control; type: functional; settings: SNB-19, 48 h, read-out: GI
[36] = test system: MDA-MB-231; assay: Growth inhibition of human MDA-MB-231 cells at 10 uM incubated for 48 hrs by sulforhodamine B assay relative to control; type: functional; settings: MDA-MB-231, 48 h, read-out: GI
[37] = test system: PC-3; assay: Growth inhibition of human PC3 cells at 10 uM incubated for 48 hrs by sulforhodamine B assay relative to control; type: functional; settings: PC-3, 48 h, read-out: GI
[38] = test system: RXF 393; assay: Growth inhibition of human RXF393 cells at 10 uM incubated for 48 hrs by sulforhodamine B assay relative to control; type: functional; settings: RXF 393, 48 h, read-out: GI
[39] = test system: OVCAR-8; assay: Growth inhibition of human OVCAR8 cells at 10 uM incubated for 48 hrs by sulforhodamine B assay relative to control; type: functional; settings: OVCAR-8, 48 h, read-out: GI
[40] = test system: NCI/ADR-RES; assay: Growth inhibition of human NCI/ADR-RES cells at 10 uM incubated for 48 hrs by sulforhodamine B assay relative to control; type: functional; settings: read-out: GI
[41] = test system: OVCAR-5; assay: Growth inhibition of human OVCAR5 cells at 10 uM incubated for 48 hrs by sulforhodamine B assay relative to control; type: functional; settings: OVCAR-5, 48 h, read-out: GI
[42] = test system: SK-MEL-5; assay: Growth inhibition of human SK-MEL-5 cells at 10 uM incubated for 48 hrs by sulforhodamine B assay relative to control; type: functional; settings: SK-MEL-5, 48 h, read-out: GI
[43] = test system: Hs-578T; assay: Growth inhibition of human Hs 578T cells at 10 uM incubated for 48 hrs by sulforhodamine B assay relative to control; type: functional; settings: read-out: GI
[44] = test system: T47D; assay: Growth inhibition of human T47D cells at 10 uM incubated for 48 hrs by sulforhodamine B assay relative to control; type: functional; settings: read-out: GI
[45] = test system: MDA-MB-468; assay: Growth inhibition of human MDA-MB-468 cells at 10 uM incubated for 48 hrs by sulforhodamine B assay relative to control; type: functional; settings: MDA-MB-468, 48 h, read-out: GI
[46] = test system: HOP-62; assay: Growth inhibition of human HOP62 cells at 10 uM incubated for 48 hrs by sulforhodamine B assay relative to control; type: functional; settings: HOP-62, 48 h, read-out: GI
[47] = test system: HCT-15; assay: Growth inhibition of human HCT15 cells at 10 uM incubated for 48 hrs by sulforhodamine B assay relative to control; type: functional; settings: HCT-15, 48 h, read-out: GI
[48] = test system: BT-549; assay: Growth inhibition of human BT549 cells at 10 uM incubated for 48 hrs by sulforhodamine B assay relative to control; type: functional; settings: BT-549, 48 h, read-out: GI

Carbonic anhydrase 1, sequence (P00915 whole entry): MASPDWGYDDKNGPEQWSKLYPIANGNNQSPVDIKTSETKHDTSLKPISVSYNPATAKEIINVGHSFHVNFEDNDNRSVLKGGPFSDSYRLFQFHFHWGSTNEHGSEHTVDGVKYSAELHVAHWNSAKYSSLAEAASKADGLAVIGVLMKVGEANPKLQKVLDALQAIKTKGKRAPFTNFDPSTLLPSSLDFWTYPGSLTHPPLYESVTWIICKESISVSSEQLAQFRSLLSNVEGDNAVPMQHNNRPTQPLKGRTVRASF

Structure (SMILES) | pKi [1] | inhibition [2] | inhibition [3] | inhibition [4] | inhibition [5] | inhibition of growth at 10 µM [6] | inhibition of growth at 10 µM [7] | inhibition of growth at 10 µM [8] | inhibition of growth at 10 µM [9] | inhibition of growth at 10 µM [10] | inhibition of growth at 10 µM [11] | inhibition of growth at 10 µM [12] | inhibition of growth at 10 µM [13] | inhibition of growth at 10 µM [16] | inhibition of growth at 10 µM [18] | inhibition of growth at 10 µM [19] | inhibition of growth at 10 µM [20] | inhibition of growth at 10 µM [21] | inhibition of growth at 10 µM [22] | inhibition of growth at 10 µM [27] | further results
CN1C(=O)/C(=N\Nc2ccc(S(N)(=O)=O)cc2)c2ccccc21 | 8.03 | 17% | 51% | 75% | 81% |  |  |  |  |  |  |  |  |  |  |  |  |  |  |  | 
CCOC(=O)CN1C(=O)/C(=N\Nc2ccc(S(N)(=O)=O)cc2)c2cc(Cl)ccc21 | 7.41 | 11% | 42% | 66% | 76% | 15% | 21% | 11% | 16% | 17% | 18% | 18% | 10% | 21% | 18% | 29% | 24% | 30% | 10% | 24% | inhibition of growth at 10 µM [14]: 12%; inhibition of growth at 10 µM [15]: 10%; inhibition of growth at 10 µM [17]: 10%; inhibition of growth at 10 µM [23]: 10%; inhibition of growth at 10 µM [24]: 10%; inhibition of growth at 10 µM [25]: 10%; inhibition of growth at 10 µM [26]: 13%
NS(=O)(=O)c1ccc(N/N=C2\C(=O)N(Cc3ccccc3)c3ccc(Br)cc32)cc1 | 7.22 |  |  |  |  |  | 21% | 10% |  | 19% | 33% | 29% | 24% | 23% | 18% |  | 18% | 22% | 19% | 30% | pKi [28]: < 5.00; inhibition of growth at 10 µM [29]: 19%; inhibition of growth at 10 µM [30]: 20%; inhibition of growth at 10 µM [31]: 20%; inhibition of growth at 10 µM [32]: 46%; inhibition of growth at 10 µM [33]: 13%; inhibition of growth at 10 µM [34]: 25%; inhibition of growth at 10 µM [35]: 27%; inhibition of growth at 10 µM [36]: 23%; inhibition of growth at 10 µM [37]: 21%; inhibition of growth at 10 µM [38]: 38%; inhibition of growth at 10 µM [39]: 26%; inhibition of growth at 10 µM [40]: 13%; inhibition of growth at 10 µM [41]: 12%; inhibition of growth at 10 µM [25]: 19%; inhibition of growth at 10 µM [42]: 17%; inhibition of growth at 10 µM [43]: 27%; inhibition of growth at 10 µM [44]: 19%; inhibition of growth at 10 µM [45]: 13%
CCCN1C(=O)/C(=N\Nc2ccc(S(N)(=O)=O)cc2)c2cc(Br)ccc21 | 7.25 |  |  |  |  | 21% | 12% | 26% | 11% | 19% | 18% | 31% | 30% | 20% | 18% | 10% |  | 23% |  | 30% | inhibition of growth at 10 µM [29]: 14%; inhibition of growth at 10 µM [46]: 13%; inhibition of growth at 10 µM [31]: 22%; inhibition of growth at 10 µM [47]: 12%; inhibition of growth at 10 µM [32]: 27%; inhibition of growth at 10 µM [34]: 13%; inhibition of growth at 10 µM [36]: 10%; inhibition of growth at 10 µM [37]: 24%; inhibition of growth at 10 µM [38]: 23%; inhibition of growth at 10 µM [39]: 24%; inhibition of growth at 10 µM [40]: 16%; inhibition of growth at 10 µM [41]: 11%; inhibition of growth at 10 µM [48]: 10%; inhibition of growth at 10 µM [44]: 19%; inhibition of growth at 10 µM [45]: 14%
